Results as given in ChEMBL document CHEMBL1150045, “Callyspongenols A-C, new cytotoxic C22-polyacetylenic alcohols from a red sea sponge, Callyspongia species” (J Nat Prod, 2003).
≈ marks a conversion by molar mass, not a printed value.

What was measured:
P388 = assay: Cytotoxicity against mouse P388 cells; format: functional, cell-based
HeLa = assay: Cytotoxicity against human HeLa cells; format: functional, cell-based

Row | SMILES | IC50 (P388) [µg/mL] | IC50 (HeLa) [µg/mL]
1 | C#C/C=C\CCCCC#CCCCCC#CCCCC#CCO | 2.2 (≈ 7.13 µM) | 4.5 (≈ 14.6 µM)
2 | C#C/C=C\CCCCCCC#CC#CCCC/C=C\C#CCO [CALLYSPONGENOL B] | 10 (≈ 32.6 µM) | 10 (≈ 32.6 µM)
3 | C#C/C=C\CCCC/C=C\C#CC#CCCC/C=C\C#CCO [CALLYSPONGENOL C] | 2.2 (≈ 7.23 µM) | 3.9 (≈ 12.8 µM)
4 | C#C/C=C\CCCCC#CC#CC#CCCC/C=C\C#CCO [DEHYDROISOPHONOCHALYNOL] | 2.2 (≈ 7.27 µM) | 5.1 (≈ 16.9 µM)
5 | COc1cccc2c1C(=O)c1c(O)c3c(c(O)c1C2=O)C[C@@](O)(C(=O)CO)C[C@@H]3O[C@H]1C[C@H](N)[C@H](O)[C@H](C)O1 [DOXORUBICIN] | 0.04 (≈ 0.0736 µM) | 0.066 (≈ 0.121 µM)
